Data published in BindingDB's records for doi:10.1016/j.bmcl.2005.08.107 (Bristol-Myers Squibb Pharmaceutical Research Institute, 2005).

molecular target: Coagulation factor X (Homo sapiens, UniProt P00742); assay: Inhibitory activity against human FXa
Sequence (P00742 41-179 limits assumed): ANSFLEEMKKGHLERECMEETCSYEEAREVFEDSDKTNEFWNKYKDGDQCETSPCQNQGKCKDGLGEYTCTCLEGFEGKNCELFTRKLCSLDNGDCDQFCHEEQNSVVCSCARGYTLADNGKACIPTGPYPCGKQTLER
Sequence (P00742 235-488 limits assumed): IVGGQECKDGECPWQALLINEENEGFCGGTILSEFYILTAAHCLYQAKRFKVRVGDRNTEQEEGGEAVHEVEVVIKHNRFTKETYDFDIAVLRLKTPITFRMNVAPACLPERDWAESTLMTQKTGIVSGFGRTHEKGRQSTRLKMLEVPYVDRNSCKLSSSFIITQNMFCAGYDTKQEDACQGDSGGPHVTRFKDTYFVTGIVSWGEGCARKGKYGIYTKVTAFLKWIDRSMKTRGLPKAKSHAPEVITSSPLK

IC50	SMILES
0.057 µM	Cc1cc2cc(N=C(N[C@H]3CCCCN(CC(=O)N4CCCC4)C3=O)C(C#N)C(=O)OC(C)(C)C)ccc2o1 (stereo partly drawn) [(S,Z)-tert-butyl 2-cyano-3-(2-methylbenzofuran-5-ylamino)-3-(2-oxo-1-(2-oxo-2-(pyrrolidin-1-yl)ethyl)azepan-3-ylamino)acrylate]
0.013 µM	Cc1cc2cc(N=C(N[C@H]3CCCCN(CC(=O)N4CCCC4)C3=O)C(C#N)C(=O)NC(N)=O)ccc2o1 (stereo partly drawn) [(S,Z)-1-(2-cyano-3-(2-methylbenzofuran-5-ylamino)-3-(2-oxo-1-(2-oxo-2-(pyrrolidin-1-yl)ethyl)azepan-3-ylamino)acryloyl)urea]
> 34 µM	Cc1ccc(NC(C[N+](=O)[O-])=N[C@H]2CCCCN(CC(=O)N3CCCC3)C2=O)cc1 [(S,Z)-3-(1-(p-toluidino)-2-nitrovinylamino)-1-(2-oxo-2-(pyrrolidin-1-yl)ethyl)azepan-2-one]
0.013 µM	COc1ccc(C(=O)C(C#N)C(=Nc2ccc3oc(C)cc3c2)N[C@H]2CCCCN(CC(=O)N3CCCC3)C2=O)cc1 (stereo partly drawn) [(S,Z)-2-(4-methoxybenzoyl)-3-(2-methylbenzofuran-5-ylamino)-3-(2-oxo-1-(2-oxo-2-(pyrrolidin-1-yl)ethyl)azepan-3-ylamino)acrylonitrile]
> 34 µM	CN(C)c1ccc(NC(C[N+](=O)[O-])=N[C@H]2CCCCN(CC(=O)N3CCCC3)C2=O)cc1 [(S,Z)-3-(1-(4-(dimethylamino)phenylamino)-2-nitrovinylamino)-1-(2-oxo-2-(pyrrolidin-1-yl)ethyl)azepan-2-one]
0.057 µM	Cc1cc2cc(N=C(N[C@H]3CCCCN(CC(=O)N4CCCC4)C3=O)C(C#N)C(=O)N3CCC(C)CC3)ccc2o1 (stereo partly drawn) [(S,Z)-3-(2-methylbenzofuran-5-ylamino)-2-(4-methylpiperidine-1-carbonyl)-3-(2-oxo-1-(2-oxo-2-(pyrrolidin-1-yl)ethyl)azepan-3-ylamino)acrylonitrile]
0.013 µM	Cc1cc2cc(N=C(N[C@H]3CCCCN(CC(=O)N4CCCC4)C3=O)C(C#N)C(=O)c3ccc(Cl)cc3)ccc2o1 (stereo partly drawn) [(S,Z)-2-(4-chlorobenzoyl)-3-(2-methylbenzofuran-5-ylamino)-3-(2-oxo-1-(2-oxo-2-(pyrrolidin-1-yl)ethyl)azepan-3-ylamino)acrylonitrile]
